We go through one compound from patent publication US8268893B2, “Use of dapsone as a neuroprotector in cerebral infarction” (Universidad Autonoma Metropolitana, priority 2003, dated 2012).

The subject of data set [1] is brain stroke model produced by occlusion of the middle cerebral artery. Kind of data set: Neurological functional scale in rats after permanent occlusion of the middle cerebral artery. The class given is in vivo, rat. Here is the method:
Dapsone was evaluated as neuroprotector in the brain stroke model produced by occlusion of the middle cerebral artery. The drug was suspended in a suitable vehicle.
3 groups of 5 animals each were treated with: Saline isotonic solution (551, control group), Dapsone (12.5 mg/kg) and Dapsone (9.375 mg/kg) injected by intraperitoneal route, 30 minutes after the occlusion of the middle cerebral artery, as described below.
The permanent selective brain ischemic was produced in the animals through introducing a suture thread intraluminal through the carotid artery. All animals received continuous anesthesia during the surgical procedure with halotane 1.5%, through a face mask. […]
During the 96 hours after the ischemic procedure, the animals were neurologically evaluated using a functional scale, each 24 hours.
For the neurological scale and percentage of the lesion volume in rats, the statistical significance was determined with the Kruskal-Wallis test, followed by the U test of MannWhitney.
The results of the neurological evaluation in rats are shown in FIG. 1, where the scores of the neurological test as a function of time can be observed, after producing the stroke in the rats. The results are expressed as the average of 4 independent experiments. […]

The test system of data set [2] is patients with acute brain stroke for thrombo-embolism. In words: Randomized, double-blind, placebo-controlled clinical trial in patients with acute brain stroke, NIH scale. The class given is in vivo, human. Here is the method: This study evaluated the neuroprotector effect of dapsone in patients that, having suffered an acute brain stroke for thrombo-embolism, were admitted to the Emergency Services of the National Institute of Neurology and Neurosurgery “Manuel Velasco Suarez”. Dapsone was administered in a single dose of 200 mg in suspension, orally. […] Dapsone was administered blinded to 15 patients, while other 15 patients were administered with an anti-acid suspension, as a placebo medication. Patients were randomly allocated into one of the treatment groups, using random numbers, generated by a pocket calculator. Both medications were administered during the first twelve hours after the brain stroke. As result of these procedures, the clinical trial was randomized, double-blind and placebo-controlled. The evaluation of clinical signs and symptoms was performed in blind by an expert neurologist, with the NIH scale, that quantifies the intensity of disabilities caused by the brain stroke. Said scale was applied at the time the patient entered the study (day zero) and 2, 6 and 30 days after the brain stroke. A stroke is considered as moderately severe or severe, when the NIH rated a value higher than seven. The NIH scale results in the two groups of patients were statistically analyzed with analysis of variance analysis (ANOVA) using as co-variables the NIH scale at the admittance day (day zero), as well as the gender, age, blood pressure and other important clinical variables for the patient's performance. The results in patients with acute thrombo-embolic brain stroke, are shown in FIG. 3, which presents the scores of the neurological scale (NIH) as a function of time (in days) after administering dapsone or the placebo. The results are expressed as the average of 15 patients per group +/−the standard error.

Data set [3] concerns brain stroke model produced by occlusion of the middle cerebral artery. In words: Ischemic lesion volume (histology) in rats 96 hours after occlusion of the middle cerebral artery. The class given is in vivo, rat. The conditions noted are these: for reduction of ischemic lesion volume in comparison with the control group: 96 hours.
Protocol: Dapsone was evaluated as neuroprotector in the brain stroke model produced by occlusion of the middle cerebral artery. The drug was suspended in a suitable vehicle. 3 groups of 5 animals each were treated with: Saline isotonic solution (551, control group), Dapsone (12.5 mg/kg) and Dapsone (9.375 mg/kg) injected by intraperitoneal route, 30 minutes after the occlusion of the middle cerebral artery, as described below. The permanent selective brain ischemic was produced in the animals through introducing a suture thread intraluminal through the carotid artery. All animals received continuous anesthesia during the surgical procedure with halotane 1.5%, through a face mask. Animals were placed in dorsal decubitus position, fixed and shaved in the anterior cervical region to make an incision in the middle line from the sternum towards the region of the sternohiodeous muscle, to its side rim, identifying in this side the middle rim of the sternocleidomastoideus and the superficial cervical aponeurosis in its deep leaf, same that was cut to leave exposed the common carotid blow and inside the caudal belly of the digastric. A cutting dissection of the common carotid was performed, until the hypoglose loop. The carotid bifurcation was identified, external carotid and its occipital and thyroid branches, the two latter were joined with mono-filament of 8-0 as well as with electrocoagulation for its later cut. The internal carotid was dissected in a length of approximately 5 mm and at that time the pterigo-palatine artery was identified. A microchip was placed or it was joined with mono-filament 6-0. Once the flux was stopped through these artery affluent, the mono-filament nylon 3-0 was introduced towards the internal carotid artery, through the stub of the external carotid artery, for a length of 17 mm as of the bifurcation. The wound was closed, and the animal was left to recover, with water and food ad libitum. In all cases, ischemia was verified by macroscopic observation and for the position of the thread. At the end of the 96 hours of observation, animals were sacrificed with an overdose of sodium pentobarbital by intraperitoneal route, and their brains were extracted by craniectomy. Once extracted, the brains were fixed with anhydrous alcohol during two weeks. The usual histological process was performed, as well as sections of 10 μm, storing a section each 200 μm. […] The area of each tissue section was determined using a digital analysis system and a photographic amplifier. […] Each section was assessed for 3 determinations: A) total area, including ventriculus B) Ventricular area C) Ischemic area, according to the pathologist's review. […] The results are expressed as the average+/-standard error of 4 independent experiments.
The nature of data set [4]: Stability of dapsone oral suspension. The class given is physicochemical. The conditions noted are these: refrigeration at 4° C.

Several values for one entry are separate records, joined by “and”; a condition that tells them apart may be missing. Identical values can stand only once.

Turning to `Nc1ccc(S(=O)(=O)c2ccc(N)cc2)cc1` [dapsone], in data set [1], the “reduction in the severity of the neurological symptoms in comparison with the control group” value amounted to 50%. For the same compound, the “recovery from the ischemic lesion in the neurological test compared to the control group” value in data set [1] (9.375 and 12.5 mg/kg ip, evaluated each 24 hours for 96 hours, p<0.05) is on record as “recovered better from the ischemic lesion, significantly”. Besides, the side effects entry in data set [2] (for the dose used) is listed as “No side effects”. The compound further returned an effective dose in data set [2] (model not stated, printed after the patient result) of 0.013 mmol/kg. Also, the “clinical improvement (in words)” value in data set [2] (patients, 200 mg orally) is reported as “significant clinical improvement”. Moreover, in data set [2] (patients, single 200 mg oral dose within first twelve hours after stroke), the “clinical improvement of neurological symptoms (NIH scale), in average” value is listed as 67%. Besides, the “reduction of ischemic lesion volume in comparison with the control group” value in data set [3] (9.375 mg/kg ip 30 minutes after occlusion) was 93%; in data set [3] (12.5 mg/kg ip 30 minutes after occlusion, 12.5 mg/kg) it was 91% and 90%. The “efficacy to reduce the volume of brain damage produced by the stroke” value in data set [3] (dose of 9.325 mg/kg) is recorded as 93%. In data set [4], the “stability of the suspension” value is “stable in refrigeration at 4° C., for up to one month”.
